Data set [1] has as its system MCF7 cell line. The experiment in a line: Dark toxicity, MTT assay. The data set is classed as cell-based. The conditions noted are these: Homo sapiens; MCF7; 24 h under dark, MTT; read-out: IC50 DK. As for the experimental part:
(§1) Cell lines and culture conditions: A549, HT29, MCF-7, MDA-MB-231 cell lines were maintained in RPMI1640 supplemented with fetal bovine serum (10%) and penicillin-streptomycin solution (1%), and WI38 cells were maintained in DMEM supplemented with fetal bovine serum (10%) and penicillin-streptomycin solution (1%). Approximately 1×10^4 (for A549, HT29, MCF-7, MDA-MB-231) or 1.5×10^4 (for WI38) cells per well were seeded in 96-well plate and incubated overnight light at 37° C. in a humidified atmosphere with 5% CO2.
(§2) Dark toxicity: Cells were incubated with different concentrations of photosensitive drug for 24 h in dark, and the cell viabilities were determined by MTT assay

Data set [2] concerns A549 cell line. The experiment in a line: Dark toxicity, MTT assay. Format: cell-based. Conditions: Homo sapiens; A549; 24 h under dark, MTT; read-out: IC50 DK. As for the experimental part:
as §1, §2
(In general: Tetrazolium assays rely on reduction of a dye to a coloured formazan, in cell work by metabolically active cells.)

Data set [3] concerns HT29 cell line. Briefly: Dark toxicity, MTT assay. Format: cell-based. Conditions: Homo sapiens, HT-29; HT29; 24 h under dark, MTT; read-out: IC50 DK. The procedure: as §1, §2
Data set [4] relates to E. coli. Briefly: Dark toxicity of photosensitizers on bacteria, CFU count. The data set is classed as cell-based, Escherichia coli. Conditions: absence of light, 6 h. As for the experimental part: (§3) Bacterial growth and culture: Gram-positive S. aureus or Gram-negative E. coli were grown on trypticase soy agar (TSA) for 24 h, then a colony was transferred into tryptica soy broth (TSB) and grown at 37° C. overnight at a 200 rpm speeds of shaking-up using a shaker incubator. The nutrient medium was centrifuged for 5 min at 8000 rpm and diluted by sterile 0.85% saline (pH 7.5) to concentrations of 10^8 CFU/ml, which was used for further incubation with photosensitizers in the following experiments.
(§4) Dark toxicities of the photosensitizers on bacteria: Bacterial suspensions were incubated with photosensitizers at various concentrations at 37° C. in the dark for 6 h. After that, 100 uL of cell suspension were spread on the TSA in 10-fold serial dilutions. Colony forming unit (CFU) was counted after incubation for 24 h at 37° C.

The test system of data set [5] is MCF7 cell line. The experiment in a line: Photocytotoxicity (PDT), MTT assay. Format: cell-based. The conditions noted are these: Homo sapiens, light or radiation study; MCF7; 1 h incubation, 630 nm LED light 30 s, 3.2 J/cm^2, 24 h, MTT; read-out: IC50 PDT. The procedure:
as §1
(§5) Photocytotoxicity: Cells were incubated with different concentrations of photosensitive drug for 1 h in the dark, then the medium in the well was sucked by a syringe, and washed by PBS. Then a solution of new medium was added, and illuminated by light. After irradiation, the cells were incubated under dark at 37° C. for another 24 h, and the cell viabilities were determined by MTT assay.

The subject of data set [6] is A549 cell line. Briefly: Photocytotoxicity (PDT), MTT assay. The data set is classed as cell-based. The conditions noted are these: Homo sapiens, light or radiation study; A549; 1 h incubation, 630 nm LED light 30 s, 3.2 J/cm^2, 24 h, MTT; read-out: IC50 PDT. As for the experimental part:
as §1, §5

In data set [7] the test system is HT29 cell line. Briefly: Photocytotoxicity (PDT), MTT assay. Format: cell-based. The conditions noted are these: Homo sapiens, HT-29, light or radiation study; HT29; 1 h incubation, 630 nm LED light 30 s, 3.2 J/cm^2, 24 h, MTT; read-out: IC50 PDT. As for the experimental part: as §1, §5
Data set [8] concerns normal fibroblast WI38 cells. The experiment in a line: Dark toxicity, MTT assay. Conditions: Homo sapiens, WI-38; WI38 cells, 24 h under dark, MTT; read-out: IC50 dark toxicity. The data set is classed as cell-based. The procedure:
as §1, §2
The IC50 values (50% inhibitory concentration) of the prepared phenothiazine-pyridine compounds 8, 14, 15, 16, 17, 18, 19, 20, 21, 22, 23, and 24 to normal fibroblast cell line WI38 were measured by MTT assay.

A short description of data set [9]: UV-Visible and fluorescence spectrometry. Format: physicochemical. The procedure: (§6) All of the new prepared phenothiazine-pyridine compounds are deep blue solid, the basic physiochemical properties are measured by UV-Visible and fluorescence spectrometry. […] The maximum absorption is about 650 nm in ethanol, and they are varied based on the compound structure. The fluorescence emission is about 680 nm when excited at 610 nm. All of these compounds have relatively high quantum yield, they are promising diagnostic and imaging agents. The lipophilicity is determined by the partition coefficient (log P), which can be obtained by measuring the UV-Vis absorption of the compound in phosphate buffer saline (PBS) before and after the partition equilibrium between n-octanol and PBS solution, and then calculated following the equation of: Log p=Log [(Abefore/Aafter)−1]. Wherein Abefore and Aafter are the absorption values in PBS solution before and after partition.

Data set [10] deals with S. aureus. Briefly: Photodynamic inactivation of bacteria, CFU count. The data set is classed as cell-based, Staphylococcus aureus. The procedure: as §3
(§7) Photodynamic inactivation of bacteria: Bacterial suspensions (2×10^8 CFU/ml) were co-incubated with different concentrations of the photosensitizer for 10 min at 37° C., and then centrifuged, washed once with normal saline and resuspended in PBS saline. Aliquots of this suspension were placed into 24-well flat bottom plate and illuminated with laser light. After illumination, 100 uL of cell suspension were spread on the TSA in 10-fold serial dilutions and colony forming unit (CFU) was counted after incubation for 24 h at 37° C.

In data set [11] the test system is S. aureus. The experiment in a line: Dark toxicity of photosensitizers on bacteria, CFU count. The conditions noted are these: absence of light, 6 h. The data set is classed as cell-based, Staphylococcus aureus. As for the experimental part:
as §3, §4

Data set [12] in a line: Partition coefficient (log P) between n-octanol and PBS by UV-Vis absorption. The data set is classed as physicochemical. As for the experimental part: as §6
Data set [13] has as its system E. coli. The experiment in a line: Photodynamic inactivation of bacteria, CFU count. Format: cell-based, Escherichia coli. The procedure: as §3, §7
The next data set has as its system MDA-MB-231 cells. Briefly: Light dosage dependent photocytotoxicity, 635 Laser. The data set is classed as cell-based. Conditions: MDA-MB-231, 635 Laser. As for the experimental part:
as §1, §5
[…] After incubation for a further 24 h, 3-(4,5-Dimethylthiazol-2-yl)-2,5-diphenyltetrazolium bromide (MTT) were added and the cells were incubated for another 4 h. The medium were sucked by syringe, and dimethyl sulfoxide (DMSO) was added to fully dissolve the crystals, the optical density (OD) values were measured with a microplate reader, and the data were analyzed by GraphPad Prism 6.

In data set [14] the test system is E. coli. The conditions noted are these: 10 uM, 30 min incubation, 24 J/cm^2; cited from earlier work.
The next data set relates to bacteria. The conditions noted are these: concentration of 10 uM; cited from earlier work.
The test system of data set [15] is HT29 cell line. Conditions: 664 laser and 3 J/cm^2 light dose (2008); read-out: IC50 PDT, Stanley B. Brown reported value; cited from earlier work.
In another data set the test system is HT29 cells. Briefly: Intracellular ROS generation, DCFH-DA probe, flow cytometry. Format: cell-based. Conditions: HT29, 0.5 uM, light irradiation; order 14≈23>8>18>15>24>>16>20>17≈19≈22>21>>MB. The text has this:
In order to further mimic the biological environment, we measured the intracellular reactive oxygen species (ROS) generation efficiency of these phenothiazine-pyridine compounds by flow cytometry. We employed HT29 cell line as cell model, and 2,7-dichlorofluorescin diacetate (DCFH-DA) as the intracellular ROS indicator, to determine the fluorescence intensity of 2,7-dichlorofluorescin (DCF), which was oxidized from DCFH-DA by ROS. The experiments were repeated for three times using DCFH-DA as control. For comparison, methylene blue was used as positive control. The data were analyzed by GraphPad Prism 6, the drug concentrations are all at 0.5 uM. […] In addition, the intracellular ROS generation efficiency is different from that measured in organic solvent, which may be attributed to the different cellular uptake amount for various compounds and the generation of some other ROS species other than ^1O2 in cells ([…] mechanism).
Background: In flow cytometry, cells or beads pass a laser one at a time.

Data set [16] deals with S. aureus. Conditions: 10 uM, 30 min drug-incubation, 60 J/cm^2; cited from earlier work.

Molecules are shown by their SMILES. Like-named read-outs stand apart in the source and are kept apart here. Bounds are passed on as bounds.

For `CCCNc1cc2[s+]c3cc(N(CC)CC)ccc3nc2c2ccc(C)nc12.[Cl-]` [Compound 14, 9-(diethylamino)-3-methyl-5-(propylamino)pyrido[3,2-a]phenothiazin-7-ium chloride], the IC50 (in general, the concentration that gives 50% inhibition) with MCF7 cell line [1] turned out to be 1.9 µM; in the data set with A549 cell line [2] it was 3.1 µM; with HT29 cell line [3], 2.1 µM; in the data set with MCF7 cell line [5], 0.37 µM; with A549 cell line [6], 0.34 µM; in the data set on HT29 cell line [7], 0.039 µM. In addition, the IC50 in [8] is above 10 µM. Further, the dark toxicity entry in the data set on E. coli [4] and with S. aureus [11] was “essentially non-toxic” each time. Besides, the “λmax(nm)in EtOH” value in [9] (UV-Vis absorption maximum in EtOH) is on record as 666 nm. In addition, the “Log ε” value in data set [9] (UV-Vis in EtOH) is reported as 5.01. Also, in data set [9] (fluorescence emission, excited at 610 nm), the “λEm (nm)” value turned out to be 684 nm. Besides, the “photocytotoxicity vs light dosage” value is “light dosage dependent” with S. aureus [10] (0.5 uM drug), “light dosage dependent” with E. coli [13] (6 uM drug) and “light dosage dependent photocytotoxicity” with MDA-MB-231 cells. The eradication result in the data set with S. aureus [10] (0.5 uM, 30 J/cm^2) is “about 99.9999%”; in the data set on E. coli [13] (6 uM, 50 J/cm^2) it was “about 99.999%”. In addition, the “log 10-reduction” value is on record as around 6 log 10-reduction in the data set with S. aureus [10] (0.5 uM, 30 J/cm^2) and around 5 log 10-reduction in the data set with E. coli [13] (6 uM, 50 J/cm^2). In data set [12], the logP (as a rule, the decadic logarithm of the partition coefficient of the neutral form, usually between octanol and water) was 1.34.
Regarding `CN(C)c1ccc2nc3ccc(=[N+](C)C)cc-3sc2c1` [MB, methylene blue], the figures for the IC50 in the data set on HT29 cell line [3], in the data set with HT29 cell line [7] and in the data set on HT29 cell line [15] were above 10 µM, 9.2 µM and 88.5 µM, respectively. The “log 10-reduction” value in the data set on E. coli [14] was 0.5 log 10-reduction. Further, in the data set on bacteria, the dark toxicity entry is recorded as “obvious dark toxicity”. Besides, the “intracellular ROS generation efficiency” value in the data set with HT29 cells is “almost no ROS generation”.
Take `CCCCN(CCCC)c1ccc2nc3ccc(=[N+](CCCC)CCCC)cc-3sc2c1.[Br-]` [PPA904]: the “log 10-reduction” value in the data set with S. aureus [16] is listed as 4 log 10-reduction; in the data set on E. coli [14], 3 log 10-reduction. In the data set with bacteria, the dark toxicity result is listed as “obvious dark toxicity”.

The record behind these values is patent US10189862B2, “Phenothiazine-pyridine compounds and uses thereof” (The Chinese University of Hong Kong, priority 2016, dated 2019).
